In ChEMBL document CHEMBL1932917, “4,5-dihydropyridazin-3-one derivatives as histamine H₃ receptor inverse agonists” (Bioorg Med Chem Lett, 2012):
One block for each compound: values may come before it.

Experiments:
Rattus norvegicus [1] = experiment: (§1) Half life in rat at 1 mg/kg, iv; type: ADME, organism-based; parameters: dose 1 mg/kg, route intravenous; details: in vivo
[2] = Ratio of drug level in brain to plasma in rat at 10 mg/kg, ip after 6 hrs; type: ADME, organism-based; parameters: dose 10 mg/kg, route intraperitoneal
Cytochrome P450 1A2 = biological target: T1, Cytochrome P450 1A2 (Homo sapiens, UniProt P05177); experiment: Inhibition of CYP1A2; type: ADME
T1 sequence (P05177 whole entry): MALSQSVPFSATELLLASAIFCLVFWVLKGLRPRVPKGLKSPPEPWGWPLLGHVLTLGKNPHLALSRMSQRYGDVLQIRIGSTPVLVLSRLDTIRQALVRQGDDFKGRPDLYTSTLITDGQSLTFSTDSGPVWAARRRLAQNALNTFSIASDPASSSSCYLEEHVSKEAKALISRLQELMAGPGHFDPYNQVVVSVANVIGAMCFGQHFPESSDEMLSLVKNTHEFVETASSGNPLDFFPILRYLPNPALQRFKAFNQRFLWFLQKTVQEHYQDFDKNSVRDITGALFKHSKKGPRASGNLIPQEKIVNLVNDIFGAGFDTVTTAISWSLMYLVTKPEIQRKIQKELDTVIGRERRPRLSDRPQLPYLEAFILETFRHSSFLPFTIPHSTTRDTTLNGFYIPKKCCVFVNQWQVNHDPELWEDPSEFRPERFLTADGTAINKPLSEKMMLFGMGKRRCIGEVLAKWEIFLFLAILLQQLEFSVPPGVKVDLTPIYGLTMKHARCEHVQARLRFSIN

Rattus norvegicus [3] = experiment: (§2) AUC in rat at 5 mg/kg, po; type: ADME, organism-based, Plasma; parameters: dose 5 mg/kg, route oral; details: in vivo
Cytochrome P450 2C9 = Cytochrome P450 2C9 (Homo sapiens, UniProt P11712); experiment: Inhibition of CYP2C9; type: ADME
Chain of Cytochrome P450 2C9 (P11712 whole entry): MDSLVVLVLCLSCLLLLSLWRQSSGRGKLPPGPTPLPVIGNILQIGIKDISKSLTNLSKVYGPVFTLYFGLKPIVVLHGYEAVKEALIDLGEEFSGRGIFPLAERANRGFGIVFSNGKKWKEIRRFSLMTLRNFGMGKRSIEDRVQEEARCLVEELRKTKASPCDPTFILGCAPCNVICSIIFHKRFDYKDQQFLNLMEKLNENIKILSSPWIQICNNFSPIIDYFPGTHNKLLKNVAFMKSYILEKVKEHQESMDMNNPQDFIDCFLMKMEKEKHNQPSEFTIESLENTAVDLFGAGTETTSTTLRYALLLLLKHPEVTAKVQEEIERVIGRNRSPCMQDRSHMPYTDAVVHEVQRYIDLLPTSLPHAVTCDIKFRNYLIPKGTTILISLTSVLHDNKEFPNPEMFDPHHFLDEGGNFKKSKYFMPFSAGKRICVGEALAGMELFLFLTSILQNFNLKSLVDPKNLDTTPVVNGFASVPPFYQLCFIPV

Cytochrome P450 2C19 = Cytochrome P450 2C19 (Homo sapiens, UniProt P33261); experiment: Inhibition of CYP2C19; type: ADME
Chain of Cytochrome P450 2C19 (P33261 whole entry): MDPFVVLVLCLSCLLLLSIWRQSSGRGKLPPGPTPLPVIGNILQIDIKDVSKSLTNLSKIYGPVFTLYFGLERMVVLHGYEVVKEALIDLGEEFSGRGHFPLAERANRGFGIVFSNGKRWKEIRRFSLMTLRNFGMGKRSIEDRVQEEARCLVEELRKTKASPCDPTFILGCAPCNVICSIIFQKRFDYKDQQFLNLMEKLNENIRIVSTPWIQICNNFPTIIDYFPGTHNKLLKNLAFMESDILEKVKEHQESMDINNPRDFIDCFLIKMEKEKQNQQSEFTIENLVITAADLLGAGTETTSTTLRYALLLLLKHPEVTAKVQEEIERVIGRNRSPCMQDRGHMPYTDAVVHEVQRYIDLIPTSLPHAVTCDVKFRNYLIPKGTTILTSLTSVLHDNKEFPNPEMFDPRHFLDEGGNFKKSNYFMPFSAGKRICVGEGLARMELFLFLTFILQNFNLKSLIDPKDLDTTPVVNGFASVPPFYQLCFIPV

Rattus norvegicus [4] = experiment: (§3) Oral bioavailability in rat at 5 mg/kg; type: ADME, organism-based; details: in vivo
Histamine H3 receptor [5] = biological target: T2, Histamine H3 receptor (Homo sapiens, UniProt Q9Y5N1); experiment: Inverse agonist activity at human histamine H3 receptor by [35S]GTPgammaS binding assay; type: functional
T2 sequence (Q9Y5N1 whole entry): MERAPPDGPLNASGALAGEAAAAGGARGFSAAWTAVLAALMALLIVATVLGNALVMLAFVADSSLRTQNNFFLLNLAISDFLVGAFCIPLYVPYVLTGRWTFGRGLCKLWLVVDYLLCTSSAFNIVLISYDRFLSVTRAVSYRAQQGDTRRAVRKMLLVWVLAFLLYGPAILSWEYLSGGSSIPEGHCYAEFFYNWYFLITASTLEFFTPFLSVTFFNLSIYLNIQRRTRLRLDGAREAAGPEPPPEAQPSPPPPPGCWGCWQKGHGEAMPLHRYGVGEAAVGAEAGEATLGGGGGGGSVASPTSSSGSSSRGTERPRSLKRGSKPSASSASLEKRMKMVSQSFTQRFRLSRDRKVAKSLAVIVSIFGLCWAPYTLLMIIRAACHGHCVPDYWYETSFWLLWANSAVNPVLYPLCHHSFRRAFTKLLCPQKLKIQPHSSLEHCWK

Histamine H3 receptor [6] = biological target: Histamine H3 receptor (Rattus norvegicus, UniProt Q9QYN8); experiment: Displacement of [3H]NAMH from rat histamine H3 receptor expressed in CHO cells; type: cell-based
Chain of Histamine H3 receptor (Rattus norvegicus, UniProt Q9QYN8) (Q9QYN8 whole entry): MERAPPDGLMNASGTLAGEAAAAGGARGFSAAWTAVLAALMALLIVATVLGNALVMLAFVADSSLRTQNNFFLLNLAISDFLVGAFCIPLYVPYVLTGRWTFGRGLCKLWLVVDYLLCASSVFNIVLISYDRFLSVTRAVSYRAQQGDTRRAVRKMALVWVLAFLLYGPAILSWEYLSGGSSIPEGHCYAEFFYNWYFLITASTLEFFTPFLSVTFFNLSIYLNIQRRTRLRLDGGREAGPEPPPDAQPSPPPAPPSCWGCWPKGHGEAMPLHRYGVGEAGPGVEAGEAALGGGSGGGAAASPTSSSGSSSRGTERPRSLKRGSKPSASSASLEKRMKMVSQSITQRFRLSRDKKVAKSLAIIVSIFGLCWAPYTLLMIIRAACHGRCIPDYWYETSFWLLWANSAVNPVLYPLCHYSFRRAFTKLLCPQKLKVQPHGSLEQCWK

Rattus norvegicus [7] = experiment: (§4) Volume of distribution in rat at 1 mg/kg, iv; type: ADME, organism-based; parameters: dose 1 mg/kg, route intravenous; details: in vivo
Cytochrome P450 3A4 = Cytochrome P450 3A4 (Homo sapiens, UniProt P08684); experiment: Inhibition of CYP3A4; type: ADME
Chain of Cytochrome P450 3A4 (P08684 whole entry): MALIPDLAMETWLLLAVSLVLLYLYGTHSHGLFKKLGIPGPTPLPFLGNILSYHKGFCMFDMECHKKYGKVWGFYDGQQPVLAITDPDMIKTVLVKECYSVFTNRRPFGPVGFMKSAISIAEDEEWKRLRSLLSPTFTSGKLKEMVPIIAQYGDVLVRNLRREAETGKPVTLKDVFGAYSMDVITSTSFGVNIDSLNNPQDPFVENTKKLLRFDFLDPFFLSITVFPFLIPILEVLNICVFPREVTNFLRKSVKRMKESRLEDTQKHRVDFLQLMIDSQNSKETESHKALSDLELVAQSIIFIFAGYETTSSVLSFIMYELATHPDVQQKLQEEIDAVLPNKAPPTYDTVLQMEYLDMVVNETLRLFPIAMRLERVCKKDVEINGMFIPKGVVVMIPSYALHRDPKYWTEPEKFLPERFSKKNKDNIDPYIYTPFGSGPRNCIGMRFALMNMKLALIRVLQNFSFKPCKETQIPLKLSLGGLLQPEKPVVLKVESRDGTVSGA

Rattus norvegicus [8] = experiment: (§5) Cmax in rat at 5 mg/kg, po; type: ADME, organism-based; parameters: dose 5 mg/kg, route oral; details: in vivo
Histamine H3 receptor [9] = biological target: T2, Histamine H3 receptor; experiment: Displacement of [3H]NAMH from human histamine H3 receptor expressed in CHO cells; type: cell-based
Cytochrome P450 2D6 = Cytochrome P450 2D6 (Homo sapiens, UniProt P10635); experiment: Inhibition of CYP2D6; type: ADME
Chain of Cytochrome P450 2D6 (P10635 whole entry): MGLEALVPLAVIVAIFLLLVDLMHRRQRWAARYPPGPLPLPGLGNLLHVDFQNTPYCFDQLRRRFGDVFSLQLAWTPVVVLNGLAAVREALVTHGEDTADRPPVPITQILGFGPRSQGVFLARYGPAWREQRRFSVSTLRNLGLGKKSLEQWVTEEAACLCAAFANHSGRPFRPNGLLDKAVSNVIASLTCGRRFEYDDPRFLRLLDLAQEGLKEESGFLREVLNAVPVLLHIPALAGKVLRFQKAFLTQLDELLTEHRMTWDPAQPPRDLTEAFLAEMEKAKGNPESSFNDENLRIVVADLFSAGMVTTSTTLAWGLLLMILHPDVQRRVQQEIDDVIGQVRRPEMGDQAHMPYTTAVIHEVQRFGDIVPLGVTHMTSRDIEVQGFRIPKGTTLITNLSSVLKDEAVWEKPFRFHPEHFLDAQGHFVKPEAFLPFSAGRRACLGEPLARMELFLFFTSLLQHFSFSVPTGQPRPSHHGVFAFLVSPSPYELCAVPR

Histamine H3 receptor [10] = biological target: T2, Histamine H3 receptor; experiment: Antagonist activity at human histamine H3 receptor by [35S]GTPgammaS binding assay; type: functional
[11] = as §1; type: ADME, organism-based; parameters: dose 1 mg/kg, route intravenous; details: in vivo
[12] = Half life in dog liver microsomes; type: ADME, Canis lupus familiaris, Microsome
[13] = Solubility of the compound in water at pH 7.4; type: physicochemical
[14] = Half life in human liver microsomes; type: ADME, Microsome
[15] = Half life in mouse liver microsomes; type: ADME, Microsome
Rattus norvegicus [16] = experiment: Inhibition of RAMH-induced dipsogenia in po dosed rat; type: functional
[17] = as §2; type: ADME, organism-based, Plasma; parameters: dose 5 mg/kg, route oral; details: plasma
[18] = Apparent permeability of the compound in human Caco2 cells; type: ADME, cell-based; details: Caco-2
[19] = Half life in monkey liver microsomes; type: ADME, Macaca mulatta, Microsome; details: rhesus monkey
[20] = as §3; type: ADME, organism-based; details: in vivo
[21] = biological target: T3, Muscarinic acetylcholine receptor M2 (Homo sapiens) (UniProt P08172); experiment: Inhibition of muscarinic M2 receptor at 10 uM
T3 sequence (whole entry): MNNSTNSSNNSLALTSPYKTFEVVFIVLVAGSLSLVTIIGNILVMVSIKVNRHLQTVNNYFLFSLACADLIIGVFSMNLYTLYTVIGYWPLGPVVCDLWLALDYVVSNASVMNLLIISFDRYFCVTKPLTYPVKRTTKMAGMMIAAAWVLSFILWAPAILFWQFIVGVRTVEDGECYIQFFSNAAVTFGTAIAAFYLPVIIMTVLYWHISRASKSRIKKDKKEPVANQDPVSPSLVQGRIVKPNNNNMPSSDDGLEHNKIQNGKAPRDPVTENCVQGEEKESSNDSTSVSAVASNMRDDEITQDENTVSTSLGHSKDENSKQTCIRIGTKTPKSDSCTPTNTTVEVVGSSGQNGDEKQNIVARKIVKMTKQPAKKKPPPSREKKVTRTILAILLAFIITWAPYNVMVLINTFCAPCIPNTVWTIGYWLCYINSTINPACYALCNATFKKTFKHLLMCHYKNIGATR

[22] = as §4; type: ADME, organism-based; parameters: dose 1 mg/kg, route intravenous; details: in vivo
[23] = Solubility of the compound in water at pH 2; type: physicochemical
[24] = as §5; type: ADME, organism-based; parameters: dose 5 mg/kg, route oral; details: in vivo
[25] = Drug uptake in rat brain at 5 mg/kg, po after 6 hrs; type: ADME, organism-based; parameters: dose 5 mg/kg, route oral; details: read-out: Drug uptake
[26] = Half life in rat liver microsomes; type: ADME, Microsome
[27] = Clearance in rat at 1 mg/kg, iv; type: ADME, organism-based; parameters: dose 1 mg/kg, route intravenous; details: in vivo

SMILES: CC1CC(=O)NN=C1c1ccc(OCCCN2CCC[C@H]2C)cc1 (single isomer, unassigned; isomer 2)
- t1/2 (Rattus norvegicus [1]): 90 min
- BPR ([2]; brain, 6 h): 1.9
- IC50 (Cytochrome P450 1A2): > 30 µM
- AUC (Rattus norvegicus [3]): 1.327 µg·h/mL
- IC50 (Cytochrome P450 2C9): > 30 µM
- IC50 (Cytochrome P450 2C19): > 30 µM
- F (Rattus norvegicus [4]): 52%
- EC50 (Histamine H3 receptor [5]): 0.0014 µM
- Ki (Histamine H3 receptor [6]): 0.02 µM
- Vd (Rattus norvegicus [7]): 3.4 L/kg
- IC50 (Cytochrome P450 3A4): > 30 µM
- Cmax (Rattus norvegicus [8]): 0.274 µg/mL
- Ki (Histamine H3 receptor [9]): 0.0047 µM
- IC50 (Cytochrome P450 2D6): > 30 µM

SMILES: CC1CC(=O)NN=C1c1ccc(OCCCN2CCC[C@H]2C)cc1 (stereo in doubt; 19a)
- Kb (Histamine H3 receptor [10]): 0.00068 µM

SMILES: CC1CC(c2ccc(OCCCN3CCC[C@H]3C)cc2)=NNC1=O (mixture of isomers)
- Ki (Histamine H3 receptor [6]): 0.004 µM
- Ki (Histamine H3 receptor [9]): 0.0019 µM

SMILES: C[C@@H]1CCCN1CCCOc1ccc(C2=NNC(=O)CC2c2ccccn2)cc1 (mixture of isomers)
- Ki (Histamine H3 receptor [6]): 0.021 µM
- Ki (Histamine H3 receptor [9]): 0.0099 µM

SMILES: CC1CC(=O)NN=C1c1ccc(OCCCN2CCC[C@H]2C)cc1 (mixture of isomers)
- Ki (Histamine H3 receptor [6]): 0.018 µM
- Ki (Histamine H3 receptor [9]): 0.0056 µM

SMILES: CC1CC(=O)NN=C1c1ccc(OCCCN2CCCCC2)cc1 (racemic)
- Ki (Histamine H3 receptor [6]): 0.028 µM
- Ki (Histamine H3 receptor [9]): 0.021 µM

Further lines, with some results ahead:

- Ki (Histamine H3 receptor [6]): 0.114 µM
- Ki (Histamine H3 receptor [9]): 0.037 µM
SMILES: C[C@H]1CCCN1CCCOc1ccc(C2=NNC(=O)CC2)cc1

- Ki (Histamine H3 receptor [6]): 0.042 µM
- Ki (Histamine H3 receptor [9]): 0.012 µM
SMILES: C[C@@H]1CCCN1CCCOc1ccc(C2=NN(c3ccccn3)C(=O)CC2)cc1

- Ki (Histamine H3 receptor [6]): 0.256 µM
- Ki (Histamine H3 receptor [9]): 0.074 µM
SMILES: O=C1CCC(c2ccc(OCCCN3CCCC3)cc2)=NN1

- half-life [11]: 66 min
- Kp at 6 h ([2]; brain/plasma, read-out: BPR): 3.1
- half-life [12]: > 40 min
- solubility [13]: > 2 mg/mL
- IC50 (Cytochrome P450 1A2): > 30 µM
- half-life [14]: > 40 min
- half-life [15]: > 40 min
- AUC [17]: 1.83 µg·h/mL
- IC50 (Cytochrome P450 2C9): > 30 µM
- Papp [18]: 114 nm/s
- IC50 (Cytochrome P450 2C19): > 30 µM
- half-life [19]: > 40 min
- bioavailability [20]: 19%
- inhibition [21]: 60%
- EC50 (Histamine H3 receptor [5]): 0.0007 µM
- Ki (Histamine H3 receptor [6]): 0.0088 µM
- Vd [22]: 0.8 L/kg
- IC50 (Cytochrome P450 3A4): > 11 µM
- solubility [23]: > 2 mg/mL
- Cmax [24]: 0.376 µg/mL
- Ki (Histamine H3 receptor [9]): 0.0032 µM
- concentration at 6 h [25]: 2.2 µM
- IC50 (Cytochrome P450 2D6): > 11 µM
- half-life [26]: > 40 min
- clearance [27]: 0.51 L/h/kg
SMILES: C[C@@H]1CCCN1CCCOc1ccc(C2=NNC(=O)CC2)cc1
- ED50 (Rattus norvegicus [16]): 0.06 mg/kg
- inhibition (Rattus norvegicus [16]): Dose-dependent effect

- Ki (Histamine H3 receptor [6]): 0.016 µM
- Ki (Histamine H3 receptor [9]): 0.01 µM
SMILES: C[C@@H]1CCCN1CCCOc1ccc(C2=NN(c3ccccc3)C(=O)CC2)cc1
